Measurements published in ChEMBL document CHEMBL4699566, “Pharmacophore modeling, design, and synthesis of potent antihypertensives, oxazolo/thiazolo-[3,2-a]-pyrimidin-3(2H)-one, and 1,5-dihydroimidazo-[1,2-a]-pyrimidin-3(2H)-one derivatives: A pilot trial” (2020).

How the values were obtained:
Type in all cases: functional
Rattus norvegicus [1] = assay: Antihypertensive activity in spontaneously hypertensive rat assessed as reduction in mean arterial blood pressure at 1.5 mg/kg, po measured after 12 hrs
Rattus norvegicus [2] = assay: Antihypertensive activity in spontaneously hypertensive rat assessed as reduction in mean arterial blood pressure at 1.5 mg/kg, po measured after 6 hrs
Rattus norvegicus [3] = assay: Antihypertensive activity in spontaneously hypertensive rat assessed as reduction in mean arterial blood pressure at 3 mg/kg, po measured after 6 hrs
Rattus norvegicus [4] = assay: Antihypertensive activity in spontaneously hypertensive rat assessed as reduction in mean arterial blood pressure at 3 mg/kg, po measured after 12 hrs
Rattus norvegicus [5] = assay: Antihypertensive activity in spontaneously hypertensive rat assessed as reduction in mean arterial blood pressure at 3 mg/kg, po measured after 6 hrs relative to nifedipine; set-up: scale not given: the % may be the effect or the level left
Rattus norvegicus [6] = assay: Antihypertensive activity in spontaneously hypertensive rat assessed as reduction in mean arterial blood pressure at 3 mg/kg, po measured after 12 hrs relative to nifedipine; set-up: scale not given: the % may be the effect or the level left
Rattus norvegicus [7] = assay: Antihypertensive activity in spontaneously hypertensive rat assessed as reduction in mean arterial blood pressure at 1.5 mg/kg, po measured after 6 hrs relative to nifedipine; set-up: scale not given: the % may be the effect or the level left
Rattus norvegicus [8] = assay: Antihypertensive activity in spontaneously hypertensive rat assessed as reduction in mean arterial blood pressure at 1.5 mg/kg, po measured after 12 hrs relative to nifedipine; set-up: scale not given: the % may be the effect or the level left

| Structure (SMILES) | Activity (Rattus norvegicus [1]) | Activity (Rattus norvegicus [2]) | Activity (Rattus norvegicus [3]) | Activity (Rattus norvegicus [4]) | Activity (Rattus norvegicus [5]) | Activity (Rattus norvegicus [6]) | Activity (Rattus norvegicus [7]) | Activity (Rattus norvegicus [8]) |
| --- | --- | --- | --- | --- | --- | --- | --- | --- |
| CCOC(=O)C1=C(C)N=C2OC(C)C(=O)N2C1c1ccc([N+](=O)[O-])cc1 (centres undefined) | 2.59 mmHg | 1.8 mmHg | 7.22 mmHg | 12.97 mmHg |  |  |  |  |
| COC(=O)C1=C(C)NC(C)=C(C(=O)OC)C1c1ccccc1[N+](=O)[O-] [NIFEDIPINE] | 13.33 mmHg | 7.47 mmHg | 18.96 mmHg | 27.58 mmHg |  |  |  |  |
| CCOC(=O)C1=C(C)N=C2SC(C)C(=O)N2C1c1cccc(Cl)c1 (centres undefined) | 1.41 mmHg | 1.16 mmHg | 5.37 mmHg | 7.2 mmHg |  |  |  |  |
| CCOC(=O)C1=C(C)N=C2NC(C)C(=O)N2C1c1cccc(C)c1 (centres undefined) | 11.51 mmHg | 5.5 mmHg | 18 mmHg | 24.65 mmHg | 95.46% | 92.02% | 79.78% | 92.95% |
| CCOC(=O)C1=C(C)N=C2SC(C)C(=O)N2C1c1ccc(C)c(C)c1 (centres undefined) | 2.2 mmHg | 1.62 mmHg | 5.76 mmHg | 8.24 mmHg |  |  |  |  |
| CCOC(=O)C1=C(C)N=C2SC(C)C(=O)N2C1c1ccccc1O (centres undefined) | 1.29 mmHg | 0.58 mmHg | 4.47 mmHg | 9.18 mmHg |  |  |  |  |
| CCOC(=O)C1=C(C)N=C2OC(C)C(=O)N2C1c1ccccc1 (centres undefined) | 1.82 mmHg | 1.12 mmHg | 6.04 mmHg | 10.9 mmHg |  |  |  |  |
| CCOC(=O)C1=C(C)N=C2NC(C)C(=O)N2C1c1ccccc1 (centres undefined) | 12.39 mmHg | 5.96 mmHg | 18.1 mmHg | 25.38 mmHg | 95.46% | 92.02% | 79.78% | 92.95% |
| CCOC(=O)C1=C(C)N=C2OC(C)C(=O)N2C1c1cccc([N+](=O)[O-])c1 (centres undefined) | 4.1 mmHg | 2.01 mmHg | 8.19 mmHg | 15.16 mmHg |  |  |  |  |
